Reference: patent US20250296953A1, “3,4-THIAZOLO-STEROIDS AND METHODS OF MAKING AND USING THE SAME” (Arkansas State University - Jonesboro, priority 2018, published 2025)
pIC50: −log10 of the molar value.

Assays:
Assay in all cases: Melanoma cytotoxicity assay (resazurin)
Format in all cases: cell-based
[1] = system: LOX IMVI; conditions: for pIC50: Homo sapiens
Method: (§1) Cytotoxicity Assay: Melanoma cells (˜4000 cells in each well) were incubated in a 96 well plates at 37° C. in 5% CO2 for 24 hours. Compounds were added in triplicates and the plate was further incubated for 24 hours. DMSO and dacarbazine were added as technical and positive controls respectively. Next day resazurin was added and the plate was further incubated for 6 hours followed by reading the plate at 544 nm (excitation) and 590 nm (emission) using BMG Labtech Fluostar Optima plate reader. IC50 values were determined by using Graphpad Prism.
(§2) On day 1, the cell line trypsinized and centrifuged to form cell pellet. The pellet was diluted in media, then counted using Countess automated cell counter. Approximately 4000 cells (198 uL) per well plated in […]. A control well of 200 uL growth media was also prepared. Wells closest to plate perimeter were filled with 200 uL PBS to prevent inner well evaporation. The 96 well plates are incubated in 37° C. incubator at 5% CO2 for 24 hours.
(§3) On day 2, compounds were added (in triplicate) along with DMSO/Dacarbazine controls (2 uL) added to bring wells to volume of 200 μL. The 96 well plates are incubated in 37° C. incubator at 5% CO2 for 24 hours.
(§4) On day 3, 40 μL of 0.15 mg/ml reszurin solution added to wells. Samples were placed in a 37° C. incubator at 5% CO2 for 6 hours. Excitation and emission for fluorescence measured at 544 nm and 590 nm using BMG Labtech Fluostar Optima plate reader
(§5) Percent viability determined by taking average of each triplicate well fluorescence and subtracting GM well reading to remove the background signal. This difference is then divided by the average of the negative control (DMSO) wells to determine percent viability.
(§6) IC50s were determined by using cereal dilution of compound to determine viability. Viabilities and concentration of cells are analyzed in Graphpad Prism by creating sigmoidal curve graph, which will determine the IC50 concentration.
(§7) We analyzed the ability of the thiazole-androstane derivatives to inhibit growth in various melanoma cell lines. The growth inhibition against melanoma cell lines of various compound is shown below in Tables 19 and 20. Inhibition results are reported as the IC50 concentration in μM of the indicated compound or as the percent viability […] of the indicated compound. NA=not available.

[2] = system: SK-MEL-25
Method: as §1, §2, §3, §4, §5, §6, §7

[3] = system: SK-MEL-28
Method: as §1, §2, §3, §4, §5, §6, §7

[4] = system: SK-MEL-5
Method: as §1, §2, §3, §4, §5, §6, §7

[5] = system: MALME-3M
Method: as §2, §3, §4, §5, §6, §7

SMILES	pIC50 ([1]; LOX IMVI melanoma cells)	LOX-IMVI (% viability) ([1]; human, 24 h)	SK-MEL-25 (% viability) ([2]; human, 24 h)	SK-MEL-28 (% viability) ([3]; human, 24 h)	SK-MEL-5 (% viability) ([4]; human, 24 h)	MALME-3M (% viability) ([5]; human, 24 h)	pIC50 ([2]; Homo sapiens, SK-MEL-25 melanoma cells (head prints SK-25), read-out: SK-25 IC50)	LOX-IMVI (% viability) ([1]; LOX IMVI melanoma cells, percent viability vs DMSO control, 24 hours with compound)	SK-MEL-25 (% viability) ([2]; SK-MEL-25 melanoma cells, percent viability vs DMSO control, 24 hours with compound)	SK-MEL-28 (% viability) ([3]; SK-MEL-28 melanoma cells, percent viability vs DMSO control, 24 hours with compound)	SK-MEL-5 (% viability) ([4]; SK-MEL-5 melanoma cells, percent viability vs DMSO control, 24 hours with compound)	MALME-3M (% viability) ([5]; MALME-3M melanoma cells, percent viability vs DMSO control, 24 hours with compound)
CCNc1nc2c(s1)C1=CC[C@H]3[C@@H]4CC[C@H](O)[C@@]4(C)CC[C@@H]3[C@@]1(C)CC2 [IIIa.3, (1S,2R,13R,14S,17S,18S)-7-(ethylamino)-2,18-dimethyl-8-thia-6-azapentacyclo[11.7.0.02,10.05,9.014,18]icosa-5(9),6,10-trien-17-ol]	< 4.70	6%	5.06%	2.00%	2.46%	51.83%						
CCCCNc1nc2c(s1)C1=CC[C@H]3[C@@H]4CC[C@H](O)[C@@]4(C)CC[C@@H]3[C@@]1(C)CC2 [IIIa.4, (1S,2R,13R,14S,17S,18S)-7-(butylamino)-2,18-dimethyl-8-thia-6-azapentacyclo[11.7.0.02,10.05,9.014,18]icosa-5(9),6,10-trien-17-ol]	5.12	2%	2.63%	1.69%	2.1%	4.96%	4.80					
C[C@]12CC[C@H]3[C@@H](CC=C4c5sc(NCCc6ccccc6)nc5CC[C@@]43C)[C@@H]1CC[C@@H]2O [IIIa.5, (1S,2R,13R,14S,17S,18S)-2,18-dimethyl-7-(2-phenylethylamino)-8-thia-6-azapentacyclo[11.7.0.02,10.05,9.014,18]icosa-5(9),6,10-trien-17-ol]	4.96	10%	9.39%	4.28%	3.49%	55.63%						
C=CCNc1nc2c(s1)C1=CC[C@H]3[C@@H]4CC[C@H](O)[C@@]4(C)CC[C@@H]3[C@@]1(C)CC2 [IIIa.6, (1S,2R,13R,14S,17S,18S)-7-(allylamino)-2,18-dimethyl-8-thia-6-azapentacyclo[11.7.0.02,10.05,9.014,18]icosa-5(9),6,10-trien-17-ol]	< 4.70	11%	3.79%	2.04%	3.52%	29.73%						
C[C@]12CC[C@H]3[C@@H](CC=C4c5sc(Nc6ccccc6[N+](=O)[O-])nc5CC[C@@]43C)[C@@H]1CC[C@@H]2O [IIIa.16, (1S,2R,13R,14S,17S,18S)-2,18-dimethyl-7-(2-nitroanilino)-8-thia-6-azapentacyclo[11.7.0.02,10.05,9.014,18]icosa-5(9),6,10-trien-17-ol]		67%	26.7%	8.47%	10.22%	102.39%						
C[C@]12CC[C@H]3[C@@H](CC=C4c5sc(Nc6ccc(C(=O)O)cc6)nc5CC[C@@]43C)[C@@H]1CC[C@@H]2O [IIIa.26, 4-[[(1S,2R,13R,14S,17S,18S)-17-hydroxy-2,18-dimethyl-8-thia-6-azapentacyclo[11.7.0.02,10.05,9.014,18]icosa-5(9),6,10-trien-7-yl]amino]benzoic acid]		79%	37.03%	69.56%	93.06%	113.38%						
C[C@]12CC[C@H]3[C@@H](CC=C4c5sc(Nc6cccc(C(=O)O)c6)nc5CC[C@@]43C)[C@@H]1CC[C@@H]2O [IIIa.35, 3-[[(1S,2R,13R,14S,17S,18S)-17-hydroxy-2,18-dimethyl-8-thia-6-azapentacyclo[11.7.0.02,10.05,9.014,18]icosa-5(9),6,10-trien-7-yl]amino]benzoic acid]		89%	54.19%	66.69%	106.21%	122.92%						
C[C@]12CC[C@H]3[C@@H](CC=C4c5sc(Nc6cccc(O)c6)nc5CC[C@@]43C)[C@@H]1CC[C@@H]2O [IIIa.39]								51%	6.33%	3.71%	6.75%	45.95%
